Measured values: PubChem BioAssay AID248 (DTP/NCI, 2004)
Where “and” joins values, the source holds several entries; their conditions need not be identical. Identical values can stand only once. Inconclusive results and toxic doses are left out. No stated cut-off is given here; in the data, active means T/C of 150% or more; inactive means T/C below 125%.

Test system: L1210 leukemia ip in BDF1 mice, survival T/C
Assay: NCI In Vivo Anticancer Drug Screen. Data for tumor model L1210 Leukemia (intraperitoneal) in B6D2F1 (BDF1) mice
Settings: endpoint: mean survival time, higher = longer survival
How it was run: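 Tumor was transplanted into mice, which were then dosed with test compound or vehicle alone. Survival was recorded for each group, and the treated figure was expressed relative to the control figure.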

[1] = dose: 100.0 mg/kg/injection, schedule: Q01DX009 (ip), vehicle: saline with Tween-80
[2] = dose: 200.0 mg/kg/injection, schedule: Q01DX009 (ip), vehicle: saline with Tween-80
[3] = dose: 400.0 mg/kg/injection, schedule: Q01DX009 (ip), vehicle: saline with Tween-80
[4] = dose: 100.0 mg/kg/injection, schedule: Q01DX001 (ip), vehicle: saline
[5] = dose: 200.0 mg/kg/injection, schedule: Q01DX001 (ip), vehicle: saline
[6] = dose: 400.0 mg/kg/injection, schedule: Q01DX001 (ip), vehicle: saline
[7] = dose: 100.0 mg/kg/injection, schedule: Q01DX009 (ip), vehicle: Klucel (hydroxypropylcellulose) (HPC)
[8] = dose: 200.0 mg/kg/injection, schedule: Q01DX009 (ip), vehicle: Klucel (hydroxypropylcellulose) (HPC)
[9] = dose: 400.0 mg/kg/injection, schedule: Q01DX009 (ip), vehicle: Klucel (hydroxypropylcellulose) (HPC)
[10] = dose: 100.0 mg/kg/injection, schedule: Q04DX002 (ip), vehicle: saline with Tween-80
[11] = dose: 200.0 mg/kg/injection, schedule: Q04DX002 (ip), vehicle: saline with Tween-80
[12] = dose: 100.0 mg/kg/injection, schedule: Q04DX003 (ip), vehicle: Klucel (hydroxypropylcellulose) (HPC)
[13] = dose: 200.0 mg/kg/injection, schedule: Q04DX003 (ip), vehicle: Klucel (hydroxypropylcellulose) (HPC)
[14] = dose: 400.0 mg/kg/injection, schedule: Q04DX003 (ip), vehicle: Klucel (hydroxypropylcellulose) (HPC)
[15] = dose: 50.0 mg/kg/injection, schedule: Q01DX001 (ip), vehicle: carboxymethylcellulose (CMC)
[16] = dose: 100.0 mg/kg/injection, schedule: Q01DX001 (ip), vehicle: carboxymethylcellulose (CMC)
[17] = dose: 100.0 mg/kg/injection, schedule: Q01DX001 (ip), vehicle: Klucel (hydroxypropylcellulose) (HPC)
[18] = dose: 200.0 mg/kg/injection, schedule: Q01DX001 (ip), vehicle: Klucel (hydroxypropylcellulose) (HPC)
[19] = dose: 400.0 mg/kg/injection, schedule: Q01DX001 (ip), vehicle: Klucel (hydroxypropylcellulose) (HPC)
[20] = dose: 100.0 mg/kg/injection, schedule: Q04DX002 (ip), vehicle: saline

Measured: T/C

COC(=O)c1cc(C)n(C)c(=O)c1CNS(=O)(=O)c1ccc(C)cc1
inactive: [1] 99 % of control | dose: 100.0 mg/kg/injection, schedule: Q04DX003 (ip), vehicle: saline with Tween-80 97 % of control | [2] 100 % of control | dose: 200.0 mg/kg/injection, schedule: Q04DX003 (ip), vehicle: saline with Tween-80 105 % of control | [3] 99 % of control | dose: 400.0 mg/kg/injection, schedule: Q04DX003 (ip), vehicle: saline with Tween-80 108 % of control

CC(CCN(CC(=O)O)CC(=O)O)N(CC(=O)O)CC(=O)O (configuration not stated)
inactive: [4] 98 % of control | [5] 101 % of control | [6] 93 % of control

COc1ccc(Cl)cc1NC(=O)c1cccc([N+](=O)[O-])c1
inactive: [7] 98 % of control | [8] 98 % of control | [9] 102 % of control

Nc1nc(N)c(-c2ccc(Cl)cc2)c(C(F)(F)F)n1
inactive: dose: 75.0 mg/kg/injection, schedule: Q01DX001 (ip), vehicle: saline with Tween-80 95 % of control | dose: 150.0 mg/kg/injection, schedule: Q01DX001 (ip), vehicle: saline with Tween-80 100 % of control | dose: 300.0 mg/kg/injection, schedule: Q01DX001 (ip), vehicle: saline with Tween-80 92 % of control

CCn1c[n+](-c2ccccc2)cn1
inactive: [4] 106 % of control

OCC1CCN1C(c1ccccc1)c1ccccc1 (configuration not stated)
inactive: [10] 93 % of control | [11] 86 % of control

O=C(O)c1ccc(Br)cc1
inactive: dose: 100.0 mg/kg/injection, schedule: Q04DX003 (ip), vehicle: saline 89 % of control | dose: 200.0 mg/kg/injection, schedule: Q04DX003 (ip), vehicle: saline 86 % of control

O=[N+]([O-])c1ccc(SNc2ccc(NSc3ccc([N+](=O)[O-])cc3)cc2)cc1
inactive: dose: 25.0 mg/kg/injection, schedule: Q01DX001 (ip), vehicle: saline with Tween-80 96 % of control | dose: 50.0 mg/kg/injection, schedule: Q01DX001 (ip), vehicle: saline with Tween-80 100 % of control

Cc1cc(C)c([N+](=O)[O-])c(C)c1C(=O)C(C)C
inactive: dose: 100.0 mg/kg/injection, schedule: Q01DX009 (ip), vehicle: other 105 % of control | [12] 96 % of control | dose: 200.0 mg/kg/injection, schedule: Q01DX009 (ip), vehicle: other 101 % of control | [13] 100 % of control | dose: 400.0 mg/kg/injection, schedule: Q01DX009 (ip), vehicle: other 95 % of control | [14] 94 % of control

O=C1C=CC(=O)N1c1ccc(Cl)cc1 (tested in a mixture with another compound)
inactive: dose: 100.0 mg/kg/injection, schedule: Q04DX003 (ip), vehicle: acetone 94 % of control | dose: 200.0 mg/kg/injection, schedule: Q04DX003 (ip), vehicle: acetone 103 % of control | dose: 400.0 mg/kg/injection, schedule: Q04DX003 (ip), vehicle: acetone 87 % of control

CCCCOC(=O)c1cccc2c1-c1ccccc1C2=O
inactive: dose: 100.0 mg/kg/injection, schedule: Q01DX001 (ip), vehicle: other 86 % of control | dose: 200.0 mg/kg/injection, schedule: Q01DX001 (ip), vehicle: other 93 % of control | dose: 400.0 mg/kg/injection, schedule: Q01DX001 (ip), vehicle: other 91 % of control

CS(=O)(=O)n1c(C(Cl)c2ccccc2)nc2ccccc21 (configuration not stated)
inactive: [4] 102 % of control | [5] 104 % of control | [6] 120 % of control

CC1(C)C/C(=C\c2ccc(Cl)cc2)C(=O)c2ccccc21
inactive: [7] 97 % of control | [12] 95 % of control | [8] 93 % of control | [13] 92 % of control | [9] 97 % of control | [14] 92 % of control

COc1cc(C(=O)NNC(=O)c2ccc(Cl)c(Cl)c2)cc(OC)c1OC
inactive: dose: 100.0 mg/kg/injection, schedule: Q01DX001 (ip), vehicle: saline with Tween-80 93 % of control | [1] 100 % of control and 89 % of control | [10] 93 % of control and 104 % of control | dose: 200.0 mg/kg/injection, schedule: Q01DX001 (ip), vehicle: saline with Tween-80 97 % of control | [2] 101 % of control and 86 % of control | [11] 101 % of control and 110 % of control | dose: 400.0 mg/kg/injection, schedule: Q01DX001 (ip), vehicle: saline with Tween-80 90 % of control | [3] 92 % of control and 97 % of control | dose: 400.0 mg/kg/injection, schedule: Q04DX002 (ip), vehicle: saline with Tween-80 102 % of control and 87 % of control

CN(C)N1CCC2(CCC(C(C)(C)C)CC2)CC1
inactive: [15] 101 % of control | [16] 95 % of control

CCOC(=O)C(CC(=O)O)C(c1ccccc1)c1ccccc1 (configuration not stated)
inactive: [17] 99 % of control | [7] 105 % of control and 106 % of control | dose: 100.0 mg/kg/injection, schedule: Q04DX002 (ip), vehicle: Klucel (hydroxypropylcellulose) (HPC) 98 % of control and 103 % of control | [18] 94 % of control | [8] 103 % of control and 105 % of control | dose: 200.0 mg/kg/injection, schedule: Q04DX002 (ip), vehicle: Klucel (hydroxypropylcellulose) (HPC) 98 % of control and 100 % of control | [19] 99 % of control | [9] 98 % of control and 118 % of control | dose: 400.0 mg/kg/injection, schedule: Q04DX002 (ip), vehicle: Klucel (hydroxypropylcellulose) (HPC) 98 % of control and 103 % of control

OCC1OC([Se][Se]C2OC(CO)C(O)C(O)C2O)C(O)C(O)C1O (configuration not stated)
inactive: dose: 6.25 mg/kg/injection, schedule: Q01DX009 (ip), vehicle: saline 99 % of control | dose: 12.5 mg/kg/injection, schedule: Q01DX009 (ip), vehicle: saline 100 % of control | dose: 25.0 mg/kg/injection, schedule: Q01DX009 (ip), vehicle: saline 100 % of control | [20] 105 % of control

CC(=O)c1c(C)c(C)cc(C)c1C
inactive: [7] 110 % of control | [12] 96 % of control | [8] 97 % of control | [13] 103 % of control | [9] 111 % of control | [14] 103 % of control

CCCCCCCCC(O)CCCCCCCCC(=O)O (configuration not stated)
inactive: [1] 101 % of control | [2] 97 % of control | [3] 86 % of control

COC(=O)NS(=O)(=O)c1ccn(C)c1
inactive: [17] 97 % of control | [12] 100 % of control | [18] 98 % of control | [13] 100 % of control | [19] 104 % of control | [14] 100 % of control

O=C1C(=O)c2cc(Br)ccc2-c2ccc(Br)cc21
inactive: [15] 107 % of control | [16] 107 % of control | dose: 200.0 mg/kg/injection, schedule: Q01DX001 (ip), vehicle: carboxymethylcellulose (CMC) 100 % of control | dose: 400.0 mg/kg/injection, schedule: Q01DX001 (ip), vehicle: carboxymethylcellulose (CMC) 89 % of control

Nc1c(F)c(F)c(C(=O)O)c(F)c1F
inactive: [20] 94 % of control and 101 % of control | dose: 200.0 mg/kg/injection, schedule: Q04DX002 (ip), vehicle: saline 97 % of control and 107 % of control | dose: 800.0 mg/kg/injection, schedule: Q04DX002 (ip), vehicle: saline 100 % of control

CC(=O)/C=C/c1ccc(O)cc1
inactive: [7] 98 % of control | [8] 96 % of control | [9] 100 % of control
